Values quoted from earlier work in patent US20240173338A1, “PREPARATION AND ACTIVITY CHARACTERIZATION OF CANNABICITRAN ENANTIOMERS” (University of North Carolina at Wilmington, priority 2022, published 2024).

How the values were obtained:
5-HT1A = target: T1, 5-HT1A (Homo sapiens, UniProt P08908)
T1 sequence (P08908 1-422): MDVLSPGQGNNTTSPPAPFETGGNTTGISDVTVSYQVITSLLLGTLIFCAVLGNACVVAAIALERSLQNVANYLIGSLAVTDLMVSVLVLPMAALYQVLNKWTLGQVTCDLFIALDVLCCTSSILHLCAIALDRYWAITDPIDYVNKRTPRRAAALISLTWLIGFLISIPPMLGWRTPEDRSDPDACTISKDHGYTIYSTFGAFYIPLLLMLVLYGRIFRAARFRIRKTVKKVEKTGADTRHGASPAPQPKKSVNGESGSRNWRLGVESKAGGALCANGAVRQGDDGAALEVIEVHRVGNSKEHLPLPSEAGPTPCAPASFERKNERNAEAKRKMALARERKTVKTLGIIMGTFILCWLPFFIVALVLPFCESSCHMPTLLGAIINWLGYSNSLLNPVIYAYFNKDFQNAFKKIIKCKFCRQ

GPR55 = GPR55 (Homo sapiens, UniProt Q9Y2T6)
GPR55, sequence (Q9Y2T6 whole entry, species assumed): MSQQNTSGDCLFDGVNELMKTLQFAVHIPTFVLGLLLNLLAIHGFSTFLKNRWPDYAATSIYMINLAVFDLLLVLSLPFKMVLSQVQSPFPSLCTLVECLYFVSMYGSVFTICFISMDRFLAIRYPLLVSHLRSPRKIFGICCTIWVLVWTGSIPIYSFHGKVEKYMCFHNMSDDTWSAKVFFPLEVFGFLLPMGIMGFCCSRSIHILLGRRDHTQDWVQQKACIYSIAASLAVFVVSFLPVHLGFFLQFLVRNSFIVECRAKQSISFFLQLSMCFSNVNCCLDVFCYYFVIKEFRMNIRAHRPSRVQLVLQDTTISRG

CB1 = CB1 (Homo sapiens, UniProt P21554)
CB1, sequence (P21554 whole entry, species assumed): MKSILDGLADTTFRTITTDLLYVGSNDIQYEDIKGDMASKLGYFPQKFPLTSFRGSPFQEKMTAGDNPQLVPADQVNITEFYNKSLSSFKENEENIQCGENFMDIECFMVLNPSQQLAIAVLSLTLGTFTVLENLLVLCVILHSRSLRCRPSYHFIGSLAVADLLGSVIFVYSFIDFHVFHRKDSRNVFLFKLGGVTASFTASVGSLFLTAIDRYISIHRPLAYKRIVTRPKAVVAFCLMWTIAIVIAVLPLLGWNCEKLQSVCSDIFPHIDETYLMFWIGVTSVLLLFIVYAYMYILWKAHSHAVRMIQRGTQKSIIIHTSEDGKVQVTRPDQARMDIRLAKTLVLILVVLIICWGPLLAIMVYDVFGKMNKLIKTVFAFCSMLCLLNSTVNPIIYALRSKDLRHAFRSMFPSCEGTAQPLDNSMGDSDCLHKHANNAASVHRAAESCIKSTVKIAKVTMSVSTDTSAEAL

CB2 = CB2 (Homo sapiens, UniProt P34972)
CB2, sequence (P34972 whole entry, species assumed): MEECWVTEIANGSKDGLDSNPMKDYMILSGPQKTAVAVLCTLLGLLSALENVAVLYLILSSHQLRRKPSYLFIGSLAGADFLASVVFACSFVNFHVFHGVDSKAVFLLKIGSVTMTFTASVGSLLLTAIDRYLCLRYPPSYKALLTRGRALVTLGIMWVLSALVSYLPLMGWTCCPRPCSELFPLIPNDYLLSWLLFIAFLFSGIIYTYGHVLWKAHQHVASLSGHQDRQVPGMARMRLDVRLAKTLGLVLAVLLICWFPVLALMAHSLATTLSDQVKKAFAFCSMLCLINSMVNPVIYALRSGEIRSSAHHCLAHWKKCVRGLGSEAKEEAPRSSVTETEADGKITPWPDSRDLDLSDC

[1] = rabbits

In the case of trans-CBD [(−)-2], the “binding to 5-HT1A” value (5-HT1A) is listed as “known to bind”, the “binding to multiple TRPs” value (multiple TRPs) is listed as “known to bind” and the “binding to GPR55” value (GPR55) is listed as “known to bind”.
In the case of trans-CBD [(+)-2], the “binding to CB1” value (CB1) is listed as “bind strongly” and the “binding to CB2” value (CB2) is listed as “bind strongly”.
In the case of CCCCCc1cc2c3c(c1)O[C@]1(C)CC[C@@H]([C@H]3C1)C(C)(C)O2 [CBT-C (3), cannabicitran], the “effect on intraocular pressure” value [1] is listed as “reduces intraocular pressure”.
